How the values were obtained:
Format in all cases: biochemical
5-lipoxygenase (5-LO) = target: T1, 5-lipoxygenase (5-LO) (Homo sapiens, UniProt P09917); test: isolated 5-LO activity assay ([…] AA, products by RP-HPLC)
T1 construct: gene ALOX5; recombinant, expressed in E. coli BL21 (DE3) with pT3-5-LO, purified on ATP-agarose
T1 sequence (P09917 1-674): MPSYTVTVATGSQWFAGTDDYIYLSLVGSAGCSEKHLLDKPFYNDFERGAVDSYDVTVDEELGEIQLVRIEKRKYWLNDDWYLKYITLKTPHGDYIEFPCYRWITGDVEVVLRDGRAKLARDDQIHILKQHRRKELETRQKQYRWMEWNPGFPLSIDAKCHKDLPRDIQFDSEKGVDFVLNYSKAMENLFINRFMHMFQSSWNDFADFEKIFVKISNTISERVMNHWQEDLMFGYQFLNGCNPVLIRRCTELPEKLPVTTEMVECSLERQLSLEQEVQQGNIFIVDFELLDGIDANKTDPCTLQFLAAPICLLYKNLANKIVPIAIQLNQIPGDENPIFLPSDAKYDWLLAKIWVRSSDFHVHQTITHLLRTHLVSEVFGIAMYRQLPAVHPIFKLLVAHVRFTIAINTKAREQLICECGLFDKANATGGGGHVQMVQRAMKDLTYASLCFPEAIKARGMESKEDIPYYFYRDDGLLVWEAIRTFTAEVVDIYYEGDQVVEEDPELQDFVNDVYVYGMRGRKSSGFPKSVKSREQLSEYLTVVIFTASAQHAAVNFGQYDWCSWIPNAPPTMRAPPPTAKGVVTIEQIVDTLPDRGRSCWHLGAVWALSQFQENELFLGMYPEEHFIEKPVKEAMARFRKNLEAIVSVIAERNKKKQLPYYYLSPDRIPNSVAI

cyclooxygenase-2 (COX-2) = target: T2, cyclooxygenase-2 (COX-2) (Homo sapiens, UniProt P35354); test: isolated COX-2 activity assay ([…] AA, 12-HHT formation); […] residual activity at […]
T2 construct: gene PTGS2; recombinant human COX-2
T2 sequence (P35354 18-604): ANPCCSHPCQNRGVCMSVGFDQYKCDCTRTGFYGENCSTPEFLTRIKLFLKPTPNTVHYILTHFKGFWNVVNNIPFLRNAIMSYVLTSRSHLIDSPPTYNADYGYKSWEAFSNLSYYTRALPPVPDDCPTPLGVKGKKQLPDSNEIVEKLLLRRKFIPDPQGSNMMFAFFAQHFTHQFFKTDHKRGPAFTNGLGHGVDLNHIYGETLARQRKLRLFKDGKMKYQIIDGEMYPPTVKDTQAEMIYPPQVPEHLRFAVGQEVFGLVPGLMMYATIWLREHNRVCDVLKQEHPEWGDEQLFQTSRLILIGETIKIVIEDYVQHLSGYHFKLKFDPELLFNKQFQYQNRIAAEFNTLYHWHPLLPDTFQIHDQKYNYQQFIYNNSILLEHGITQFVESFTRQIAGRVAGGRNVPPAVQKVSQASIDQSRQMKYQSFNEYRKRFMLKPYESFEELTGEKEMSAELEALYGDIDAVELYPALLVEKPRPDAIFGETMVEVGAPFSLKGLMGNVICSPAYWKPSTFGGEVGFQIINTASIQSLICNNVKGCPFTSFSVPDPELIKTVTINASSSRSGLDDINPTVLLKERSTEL

cyclooxygenase-1 (COX-1) = target: T3, cyclooxygenase-1 (COX-1) (Ovis aries, UniProt P05979); test: isolated COX-1 activity assay ([…] AA, 12-HHT formation); […] residual activity at […]
T3 construct: gene PTGS1; purified ovine COX-1
T3 sequence (P05979 25-600): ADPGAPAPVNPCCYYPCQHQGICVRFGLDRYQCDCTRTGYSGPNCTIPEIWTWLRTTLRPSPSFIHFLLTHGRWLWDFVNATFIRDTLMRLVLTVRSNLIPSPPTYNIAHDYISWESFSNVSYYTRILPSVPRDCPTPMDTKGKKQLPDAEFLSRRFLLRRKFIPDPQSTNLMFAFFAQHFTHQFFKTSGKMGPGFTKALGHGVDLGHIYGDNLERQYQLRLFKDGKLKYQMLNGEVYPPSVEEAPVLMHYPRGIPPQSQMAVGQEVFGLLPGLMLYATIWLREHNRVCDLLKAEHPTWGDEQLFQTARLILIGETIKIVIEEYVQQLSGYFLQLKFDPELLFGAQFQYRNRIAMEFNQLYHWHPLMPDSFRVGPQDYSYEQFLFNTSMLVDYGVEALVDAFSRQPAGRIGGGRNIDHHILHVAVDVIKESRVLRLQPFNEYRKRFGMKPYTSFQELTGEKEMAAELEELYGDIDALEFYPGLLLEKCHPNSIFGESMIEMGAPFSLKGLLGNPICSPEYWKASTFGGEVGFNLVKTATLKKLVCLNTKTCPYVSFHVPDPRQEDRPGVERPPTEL

C[C@H]1COC2=C1C(=O)C(=O)c1c2ccc2c1CCCC2(C)C [CRY, cryptotanshinone]
IC50 (5-lipoxygenase (5-LO)): 7.1 µM
IC50 (cyclooxygenase-2 (COX-2)): > 30 µM
IC50 (cyclooxygenase-1 (COX-1)): > 30 µM
